# Biological target: T1, CYP76AK6 (Salvia pomifera, UniProt A0A0S1TPC7)
# T1 construct: expressed in S. cerevisiae (pESC-Trp) with CYP76AH24 variant and Populus trichocarpa CPR2
# T1 sequence (A0A0S1TPC7 1-500): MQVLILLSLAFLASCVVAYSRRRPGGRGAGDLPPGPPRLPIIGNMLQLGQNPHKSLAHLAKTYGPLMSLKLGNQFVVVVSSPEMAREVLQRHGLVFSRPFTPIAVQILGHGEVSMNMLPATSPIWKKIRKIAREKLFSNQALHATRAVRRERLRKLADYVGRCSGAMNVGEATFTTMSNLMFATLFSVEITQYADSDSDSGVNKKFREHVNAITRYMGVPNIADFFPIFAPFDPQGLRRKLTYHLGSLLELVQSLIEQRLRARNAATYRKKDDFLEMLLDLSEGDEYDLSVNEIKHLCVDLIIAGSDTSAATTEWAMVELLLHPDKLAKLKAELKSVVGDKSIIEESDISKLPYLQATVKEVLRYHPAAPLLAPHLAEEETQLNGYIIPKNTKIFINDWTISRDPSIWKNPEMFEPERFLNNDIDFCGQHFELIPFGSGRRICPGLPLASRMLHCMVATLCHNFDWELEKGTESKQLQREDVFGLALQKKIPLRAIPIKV
# Assay: product titre in engineered yeast cells, GC
# Format: cell-based
# Details: C-20 oxidation to pisiferic acid; co-expressed CYP76AH24(F112L), CPR2, Cytb5
compound,measurement,value
CC(C)c1cc2c(cc1O)[C@@]1(C)CCCC(C)(C)[C@@H]1CC2 [ferruginol],"product titre in engineered yeast cells, GC",CYP76AH24(F112L) variant enabled the complete shift from carnosic acid to pisiferic acid production in yeast
